This note sets out measurements from patent US20260272899A1 (Bayer Aktiengesellschaft, priority 2024, published 2026).

Regarding `CCOc1ncc(C)c2c1[C@H](c1ccc(C#N)cc1OC)C(C(N)=O)=C(C)N2` [finerenone, (4S)-4-(4-cyano-2-methoxyphenyl)-5-ethoxy-2,8-dimethyl-1,4-dihydro-1,6-naphthyridine-3-carboxamide], the “Sudden death, number of subjects” value (AE of death or leading to death by preferred term, finerenone n = 2,993) worked out at 20. In addition, the “All-cause death, Rate (per 100 py)” value (No SGLT2i use at baseline, column headed Finerenone n = 2,610) is reported as 7.0 per 100 py. Besides, the “Total worsening heart failure events and death from cardiovascular causes: Rate per 100 patient-yr” value (finerenone N = 3,003) was 14.9 per 100 patient-yr.
